Experiment [1] concerns MCF7. The experiment in a line: Cytotoxicity against human MCF7 cells assessed as growth inhibition after 48 hrs by MTT assay. The settings on record: MCF7, 48 h. It counts as functional, cell-based. On the technique in general: Tetrazolium assays rely on reduction of a dye to a coloured formazan, in cell work by metabolically active cells.
The next experiment deals with MDA-MB-231. In words: Cytotoxicity against human MDA-MB-231 cells assessed as growth inhibition after 48 hrs by MTT assay. Format: functional, cell-based. Conditions: MDA-MB-231, 48 h.
Experiment [2] deals with MCF7. In words: Cell cycle arrest in human MCF7 cells assessed as accumulation at G0/G1 phase at 2 uM after 24 hrs by flow cytometric analysis (reference value: 18.4%). It counts as functional.
For experiment [3], the system named is MCF7. The experiment in a line: Cell cycle arrest in human MCF7 cells assessed as accumulation at G2/M phase at 2 uM after 24 hrs by flow cytometric analysis (reference value: 2.35%). It counts as functional. A general note: In flow cytometry, cells or beads pass a laser one at a time.
Experiment [4] relates to MCF7. In words: Cell cycle arrest in human MCF7 cells assessed as accumulation at S phase at 2 uM after 24 hrs by flow cytometric analysis (reference value: 79.1%). Format: functional.
For experiment [5], the system named is MCF7. The experiment in a line: Cell cycle arrest in human MCF7 cells assessed as accumulation at G0/G1 phase at 2 uM after 48 hrs by flow cytometric analysis (reference value: 34.2%). It counts as functional.
The subject of experiment [6] is MCF7. The experiment in a line: Cell cycle arrest in human MCF7 cells assessed as accumulation at S phase at 2 uM after 48 hrs by flow cytometric analysis (reference value: 57.7%). It counts as functional.
Experiment [7] has as its system MCF7. In words: Cell cycle arrest in human MCF7 cells assessed as accumulation at G2/M phase at 2 uM after 48 hrs by flow cytometric analysis (reference value: 8.1%). It counts as functional.
Experiment [8] deals with MCF7. The experiment in a line: Induction of intrinsic apoptosis in human MCF7 cells assessed as effect on mitochondrial membrane depolarization at 2 uM after 5 hrs by DiOC6 staining-based FACS analysis relative to control. It counts as functional.
Experiment [9] concerns MCF7. In words: Induction of intrinsic apoptosis in human MCF7 cells assessed as effect on mitochondrial membrane depolarization at 2 uM after 18 hrs by DiOC6 staining-based FACS analysis (reference value: 2%). It counts as functional.
For experiment [10], the system named is MCF7. The experiment in a line: Induction of intrinsic apoptosis in human MCF7 cells assessed as effect on mitochondrial membrane depolarization by measuring mean fluorescence intensity at 2 uM after 18 hrs by DiOC6 staining-based FACS analysis (reference value: 463). It counts as functional.
The test system of experiment [11] is MCF7. In words: Induction of apoptosis in human MCF7 cells assessed as late apoptotic cells at 2 uM after 24 hrs by Annexin-V FITC/propidium iodide staining-based FACS analysis (reference value: 5.4%). Format: functional.
The subject of experiment [12] is MCF7. The experiment in a line: Induction of apoptosis in human MCF7 cells assessed as early apoptotic cells at 2 uM after 24 hrs by Annexin-V FITC/propidium iodide staining-based FACS analysis (reference value: 0.5%). Format: functional.
Experiment [13] has as its system MCF7. The experiment in a line: Induction of apoptosis in human MCF7 cells assessed as viable cells at 2 uM after 24 hrs by Annexin-V FITC/propidium iodide staining-based FACS analysis (reference value: 93.9%). The settings on record: MCF7, 24 h, read-out: Activity. Format: functional.
Experiment [14] relates to MCF7. In words: Induction of apoptosis in human MCF7 cells assessed as necrotic cells at 2 uM after 24 hrs by Annexin-V FITC/propidium iodide staining-based FACS analysis (reference value: 0.2%). Format: functional.

Molecules are shown by their SMILES. pIC50: −log10 of the molar value.

The record followed here is ChEMBL document CHEMBL4138123, “Design, synthesis and biological evaluation of novel pyrazolochalcones as potential modulators of PI3K/Akt/mTOR pathway and inducers of apoptosis in breast cancer cells” (Eur J Med Chem, 2017).

`O=C(/C=C/c1cc(-c2ccc3c(c2)OCO3)n[nH]1)c1ccc(Cl)c(Cl)c1`: the negative logarithm of the IC50 (pIC50) in the experiment on MCF7 [1] is 4.97; in the experiment on MDA-MB-231, 4.83.
For the molecule `COc1cc(-c2cc(/C=C3\Cc4ccccc4C3=O)[nH]n2)cc(OC)c1OC`, the pIC50 in the experiment with MCF7 [1] was 5.32; in the experiment with MDA-MB-231 it was 5.15.
Turning to `COc1cccc2c1C(=O)c1c(O)c3c(c(O)c1C2=O)C[C@@](O)(C(=O)CO)C[C@@H]3O[C@H]1C[C@H](N)[C@H](O)[C@H](C)O1.Cl` [DOXORUBICIN HYDROCHLORIDE], the Activity in the experiment on MCF7 [2] worked out at 82.5%; in the experiment with MCF7 [3], 1.2%; in the experiment on MCF7 [4] it was 16.2%; with MCF7 [5], 59.1%; in the experiment with MCF7 [6] it was 40.1%; with MCF7 [7], 0.8%.
For the molecule `COc1ccc2c(c1)C/C(=C\c1cc(-c3cc(OC)c(OC)c(OC)c3)n[nH]1)C2=O`, the pIC50 in the experiment on MCF7 [1] was 5.68; in the experiment on MDA-MB-231, 5.70.
`Nc1ccc(C(=O)/C=C/c2cc(-c3ccc4c(c3)OCO4)n[nH]2)cc1`: the negative logarithm of the IC50 (pIC50) in the experiment on MCF7 [1] is 5.46; with MDA-MB-231, 5.29.
The corresponding values for `O=C1/C(=C/c2cc(-c3ccc4c(c3)OCO4)n[nH]2)Cc2ccccc21` are 5.29 and 5.08.
With `O=C(/C=C/c1cc(-c2ccc3c(c2)OCO3)n[nH]1)c1ccc(F)c(F)c1`, the negative logarithm of the IC50 (pIC50) was 5.09 in the experiment with MCF7 [1] and 4.92 in the experiment on MDA-MB-231.
The corresponding values for `COc1ccc(C(=O)/C=C/c2cc(-c3ccc4c(c3)OCO4)n[nH]2)cc1` are 5.46 and 5.46.
On to `O=C(/C=C/c1cc(-c2ccc3c(c2)OCO3)n[nH]1)c1ccc(Cl)cc1`, for which the values for the pIC50 in the experiment with MCF7 [1] and with MDA-MB-231 were 4.82 and 4.76, respectively.
The corresponding values for `COc1ccc(-c2cc(/C=C/C(=O)c3ccc4c(c3)OCO4)[nH]n2)cc1` are 5.60 and 5.48.
The like results for `COc1ccc(C(=O)/C=C/c2cc(-c3ccc4c(c3)OCO4)n[nH]2)cc1F` were, in that order, 4.87 and 4.80.
`CC(=O)/C=C/c1cc(-c2ccc3c(c2)OCO3)n[nH]1`: the values for the pIC50 in the experiment on MCF7 [1] and in the experiment with MDA-MB-231 were 4.67 and 4.69, respectively.
The corresponding values for `COc1ccc(C(=O)/C=C/c2cc(-c3cc(OC)c(OC)c(OC)c3)n[nH]2)cc1F` are 5.52 and 5.57.
The corresponding values for `O=C(/C=C/c1cc(-c2ccc3c(c2)OCO3)n[nH]1)c1ccc2c(c1)OCO2` are 5.68 and 5.48.
For `COc1cc(-c2cc(/C=C/C(=O)c3ccccc3)[nH]n2)cc(OC)c1OC`, the pIC50 is 5.68 in the experiment with MCF7 [1] and 5.64 in the experiment with MDA-MB-231.
`COc1cc(-c2cc(/C=C3\CCCCC3=O)[nH]n2)cc(OC)c1OC`: the pIC50 in the experiment on MCF7 [1] was 5.00; with MDA-MB-231, 4.75.
The corresponding values for `O=C1CCCC/C1=C\c1cc(-c2ccc3c(c2)OCO3)n[nH]1` are 4.82 and 4.93.
The like results for `COc1cc2c(cc1OC)C(=O)/C(=C/c1cc(-c3cc(OC)c(OC)c(OC)c3)n[nH]1)C2` were, in that order, 5.70 and 5.60.
The like results for `O=C1/C(=C/c2cc(-c3ccc4c(c3)OCO4)n[nH]2)CCc2ccccc21` were, in that order, 5.00 and 4.90.
In the case of `COc1ccc2c(c1)C/C(=C\c1cc(-c3ccc4c(c3)OCO4)n[nH]1)C2=O`, the pIC50 is 5.57 with MCF7 [1] and 5.39 with MDA-MB-231.
In the case of `O=C(/C=C/c1cc(-c2ccc3c(c2)OCO3)n[nH]1)c1ccccc1`, the negative-log IC50 (pIC50) in the experiment on MCF7 [1] is 5.10; in the experiment on MDA-MB-231 it was 4.92.
Regarding `COc1ccc(/C=C\c2cc(OC)c(OC)c(OC)c2)cc1O` [COMBRETASTATIN A4], the pIC50 in the experiment on MCF7 [1] is 6.92; in the experiment with MDA-MB-231 it was 6.77. Besides, the Activity in the experiment on MCF7 [8] was determined as 7.6%; in the experiment on MCF7 [9] it was 46%; in the experiment on MCF7 [2] it was 0%; in the experiment with MCF7 [3], 56.3%; in the experiment on MCF7 [4] it was 46.3%; with MCF7 [5], 2.4%. The Activity in the experiment on MCF7 [6] is 12%; in the experiment on MCF7 [7], 85.5%; in the experiment with MCF7 [11], 16.8%; in the experiment on MCF7 [12], 6.1%; in the experiment with MCF7 [14], 1.3%. Moreover, the Flu intensity in the experiment with MCF7 [10] is given as 558. Moreover, the viability at 2 µM in the experiment on MCF7 [13] was determined as 75.8%.
Take `COc1cc(-c2cc(/C=C/C(=O)c3ccc(Cl)cc3)[nH]n2)cc(OC)c1OC`: the pIC50 in the experiment with MCF7 [1] was 4.94; in the experiment with MDA-MB-231 it was 4.59.
The corresponding values for `COc1cc(-c2cc(/C=C/C(C)=O)[nH]n2)cc(OC)c1OC` are 4.70 and 4.56.
In the case of `COc1ccc(-c2cc(/C=C/C(=O)c3cc(OC)c(OC)c(OC)c3)[nH]n2)cc1`, the results for the pIC50 in the experiment on MCF7 [1] and with MDA-MB-231 were 5.70 and 5.62, respectively.
`COc1cc(-c2cc(/C=C3\CCc4ccccc4C3=O)[nH]n2)cc(OC)c1OC`: the negative logarithm of the IC50 (pIC50) in the experiment on MCF7 [1] was 5.07; with MDA-MB-231, 5.02.

By pIC50 is commonly meant −log10 of the IC50, conventionally taken in molar units.
